Patent US9072729B2, “Method for treating fibrosis and cancer with imidazolium and imidazolinium compounds” (Agency for Science, Technology and Research, priority 2008, dated 2015)

Key:
[1] = tested on: TGF-β1; test: Real-time RT-PCR of TGF-β1 mRNA in HSC T6 cells; assay type: cell-based, rat; details: 48 h
Experimental: FIG. 9. DBZIM and TDBZIM suppressed TGF-β1 mRNA. HSC T6 cells were incubated with (a) DBZIM (1, 10, 100 and 300 μM) and (b) TDBZIM (1, 10 and 100 μM) for 48 h for the dosage-dependent study, and (c) with DBZIM (100 μM) and TDBZIM (100 μM) for 8, 24 and 48 h for the time-dependent study. The expression level of TGF-β1 mRNA was quantified with real-time RT-PCR. The data were presented as mean and SEM, N=6, *^aP<0.05, *^bP<0.01, *^cP<0.005, when compared to vehicle control.
Total RNA was isolated using NucleoSpin RNAII isolation kit (Nacherey & Nagel, Germany), and quantified by ND-100 spectrophotometer (Nanodrop Technologies, DE, USA). The details of real-time RT-PCR were reported elsewhere (Zhang et al. 2006). Briefly, it was a two-step real-time RT-PCR using Taqman chemistry. Total RNA was first reverse transcribed to cDNA, and real-time PCR was run and detected in ABI 7500 Fast Real-Time PCR System (Applied Biosystems, CA, USA). Primers and probes for rat GFAP, SMAA, collagen Ia1, fibronectin, TGF-β1, TGF-β receptor I (TGFβ RI) and IL-6 were ordered from Taqman's assay-on-demand database. Rat β-actin was used as normalization gene, and its expression level was constant (CT difference was <±0.5) throughout the experimental settings in this study. Relative quantification of target mRNA was calculated using comparative threshold cycle method (ΔΔCT) as described in User Bulletin #2 (ABI Prism 7700 Sequence Detection System). Relative quantification was given by 2^−ΔΔCT to express the up-regulation or down regulation of the target gene under the treatments compared to the control.

[2] = tested on: NF-κB P65; test: Western blotting of nuclear NF-κB and AP-1 in HSC T6 cells; assay type: cell-based, rat; details: DBZIM 100 μM, TDBZIM 50 μM, 48 h
Experimental: FIG. 11. Western blotting of NF-κB and AP-1 (c-Fos, JunD and Fra-1) protein expressions in HSC T6 cells treated with DBZIM (100 μM) and TDBZIM (50 μM) for 48 h. 15 μg of nuclear protein was resolved in 4-12% gradient PAGE-SDS gel. The target proteins were recognized by the respective antibodies, and visualized by the ECL method. The membrane was stripped and probed for the Tata binding protein TBP used as the loading control.
Protein extracts were prepared by lysing a cell pellet in 10 volumes of boiled 1% sodium dodecyl sulfate (SDS) (90-95° C.) for 10 min for GFAP, or using NE-PER nuclear and cytoplasmic extraction reagents from Pierce (IL, USA) for nuclear proteins, or RIPA (Pierce, Ill., USA) for SMAA, fibronectin, collagen αI(I), TGF-β1 and TGFβ RI. Protein content was quantified using a BCA kit (Pierce, Ill., USA). […] The membrane was then probed with primary antibodies against GFAP (Dako, Denmark), SMAA (Sigma, USA), procollagen αI(I), fibronectin, c-Jun, c-Fos, JunB, JunD, Fra-1, Fra-2 (Santa Cruz Biotechnology, CA, USA), NF-κB P65, TGF-β1 and TGFβ RI (Abeam, UK), and detected by horseradish peroxidase-conjugated secondary antibody (Santa Cruz Biotechnology, CA, USA). […] Protein bands were recorded on X-ray film by reacting with ECL chemiluminescence reagents (Amersham Biosciences, NJ, USA). […]

[3] = tested on: p53 signaling pathway-associated gene expression in HLE cells; test: Real-time PCR array of p53 signaling pathway-associated genes; assay type: cell-based, human; details: 48 h; for increase of ATM gene expression vs control: IBN-19 90 uM, IBN-24 90 uM, IBN-25 40 uM
Experimental: FIG. 42. Real-Time PCR array analysis of p53 signaling pathway-associated gene expression. (A) Anti-apoptotic genes. (B) Growth inhibition gene SESN2. (C) Cell cycle check point genes. (D) Cell proliferation genes. (E) DNA repair gene ATM. The relative level of gene expression was normalized with housekeeping gene GAPDH. Values are expressed as mean±standard deviation.
Cells were seeded at a density of 4×10^5 cells per dish in 10 cm dishes. Next day, the cells were exposed to 90 uM of IBN-19, 90 uM of IBN-24, 40 uM of IBN-25 and 0.045% of DMSO (Dimethyl Sulphoxide) as the control. After 48 hrs, total RNAs were extracted from the cells using Nucleospin RNA II kit as per the manufacturer's istructions. RNA quality and yield were evaluated after spectrophotometer measurements.
The human apoptosis PCR array (RT^2 Profiler) was used to analyze mRNA levels of 84 key genes involved in apoptosis, in a 96-well format, according to the manufacturer's instructions (Super Array Bioscience). First-strand cDNA was synthesized with 1 μg of RNA by using a PCR array first strand-synthesis kit (C-03; Super array Bioscience). This kit uses reverse transcriptase (Power Script; Super array Bioscience) and a combination of random primers and oligo dT primers. The total volume of the reaction was 20 μL diluted to 100 μL. PCR reactions were performed using real-time PCR (79s00HT 96-well block with RT^2 Real-Time SYBR Green PCR master mix PA-012; Applied Biosystems Instruments 7500). The total volume of the PCR reaction was 25 μl. An equivalent of […] of RNA was applied to the PCR reaction. The thermocycler parameters were 95° C. for 10 minutes, followed by 40 cycles of 95° C. for 15 seconds and 60° C. for 1 minute. Relative changes in gene expression were calculated using the ΔΔCt (cycle threshold) method. An average of the number of cycles of the five housekeeping genes, GAPDH, Actin-β, β2m, Hprt1, and Rpl13d, was used to normalize the expression between samples. The expression data are presented as fold regulation. GAPDH gene expression levels were utilized as an internal control to normalize the data. Reported fold changes in expression are the ratios of treatment over control values.
To obtain more information on how the IMSs influence other gene expression in the HLE cells, 84 genes related to p53 signal transduction were profiled by using the RT^2 Profiler array (Super Array Bioscience) (FIG. 42A, B, C, D, E). The array includes keys genes relevant to p53, apoptosis, cell cycle, cell growth, proliferation, differentiation, and DNA repair.

How did the “inhibition of TGF-β1 mRNA” value ([1]; regardless of dosage (1-100 μM)) turn out when “1,3,5-tris(4-methyl-imidazolium)-linked cyclophane.3Br [TDBZIM]” was run?
The value was about 23%.

What about the “nuclear NF-κB P65 (active form) protein” value [2] of the same compound?
Its value is “significantly attenuated”.

How did the SESN2 gene expression [3] turn out when `CC(=O)Oc1ccc(C[n+]2ccn(Cc3ccccc3)c2C)cc1.[Cl-]` [IBN-19, 1-benzyl-3-(4-acetate-benzyl)-2-methyl-imidazolium chloride] was run?
The SESN2 gene expression was “markedly induced”.

And the “increase of ATM gene expression vs control” value [3]?
The value was 36 folds.

`[Br-].c1ccc(Cn2cc[n+](Cc3ccccc3)c2)cc1` [DBZIM, 1,3-bisbenzylimidazolium bromide] was tested. Which “suppression of TGF-β1 mRNA” value ([1]; 100 μM) did it give?
Its value is 28%.

What about the “suppression of TGF-β1 mRNA” value ([1]; 300 μM) of the same compound?
The value was 33%.

And the “nuclear NF-κB P65 (active form) protein” value [2]?
The value was “significantly attenuated”.

Which “anti-apoptotic gene BCl-2 expression” value [3] does the source give for `Cc1ccc(C[n+]2ccn(Cc3ccccc3)c2)cc1.[Cl-]` [IBN-24, 1-benzyl-3-(4-methylbenzyl)-imidazolium chloride] here?
Its value is “significantly down regulated”.

What about the “cell proliferation genes (Mcl1, Egr1, Foxo3, Jun, Mdm4, Nf1, Prm1D, Sesn1, E2f11, Prkca, Brca1)” value [3] of the same compound?
The value was “significantly down regulated”.

What about the “increase of ATM gene expression vs control” value [3] of the same compound?
The value was 4.6 folds.
